Measured values taken from US20250145585A1, “HETEROCYCLIC INHIBITORS OF IGF-1R FOR TREATMENT OF DISEASE” (HORIZON THERAPEUTICS IRELAND DAC, priority 2023, published 2025).

molecular target: T1, IGF-1R (Homo sapiens, UniProt P08069); assay: Example B-1: IGF-1R Assay (PC3 cells stimulated with IGF1, AlphaLISA on cell lysates); assay type: cell-based; conditions: compound two hours, IGF1 200 ng/mL for 30 min, read-out: IC50, Biological Activity against IGF-1R (Table B1)
T1 construct: expressed in transfected cells
Method in brief: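 IC50 from AlphaLISA read-out of lysed PC3 cells, percent inhibition normalized between vehicle and EC80 controls. Before lysis, cells had 2 h serum-free starvation, 2 h exposure to compound in 3× dilution series, and 30 min IGF1 stimulation at final 200 ng/mL.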

T1 sequence (P08069 31-1367): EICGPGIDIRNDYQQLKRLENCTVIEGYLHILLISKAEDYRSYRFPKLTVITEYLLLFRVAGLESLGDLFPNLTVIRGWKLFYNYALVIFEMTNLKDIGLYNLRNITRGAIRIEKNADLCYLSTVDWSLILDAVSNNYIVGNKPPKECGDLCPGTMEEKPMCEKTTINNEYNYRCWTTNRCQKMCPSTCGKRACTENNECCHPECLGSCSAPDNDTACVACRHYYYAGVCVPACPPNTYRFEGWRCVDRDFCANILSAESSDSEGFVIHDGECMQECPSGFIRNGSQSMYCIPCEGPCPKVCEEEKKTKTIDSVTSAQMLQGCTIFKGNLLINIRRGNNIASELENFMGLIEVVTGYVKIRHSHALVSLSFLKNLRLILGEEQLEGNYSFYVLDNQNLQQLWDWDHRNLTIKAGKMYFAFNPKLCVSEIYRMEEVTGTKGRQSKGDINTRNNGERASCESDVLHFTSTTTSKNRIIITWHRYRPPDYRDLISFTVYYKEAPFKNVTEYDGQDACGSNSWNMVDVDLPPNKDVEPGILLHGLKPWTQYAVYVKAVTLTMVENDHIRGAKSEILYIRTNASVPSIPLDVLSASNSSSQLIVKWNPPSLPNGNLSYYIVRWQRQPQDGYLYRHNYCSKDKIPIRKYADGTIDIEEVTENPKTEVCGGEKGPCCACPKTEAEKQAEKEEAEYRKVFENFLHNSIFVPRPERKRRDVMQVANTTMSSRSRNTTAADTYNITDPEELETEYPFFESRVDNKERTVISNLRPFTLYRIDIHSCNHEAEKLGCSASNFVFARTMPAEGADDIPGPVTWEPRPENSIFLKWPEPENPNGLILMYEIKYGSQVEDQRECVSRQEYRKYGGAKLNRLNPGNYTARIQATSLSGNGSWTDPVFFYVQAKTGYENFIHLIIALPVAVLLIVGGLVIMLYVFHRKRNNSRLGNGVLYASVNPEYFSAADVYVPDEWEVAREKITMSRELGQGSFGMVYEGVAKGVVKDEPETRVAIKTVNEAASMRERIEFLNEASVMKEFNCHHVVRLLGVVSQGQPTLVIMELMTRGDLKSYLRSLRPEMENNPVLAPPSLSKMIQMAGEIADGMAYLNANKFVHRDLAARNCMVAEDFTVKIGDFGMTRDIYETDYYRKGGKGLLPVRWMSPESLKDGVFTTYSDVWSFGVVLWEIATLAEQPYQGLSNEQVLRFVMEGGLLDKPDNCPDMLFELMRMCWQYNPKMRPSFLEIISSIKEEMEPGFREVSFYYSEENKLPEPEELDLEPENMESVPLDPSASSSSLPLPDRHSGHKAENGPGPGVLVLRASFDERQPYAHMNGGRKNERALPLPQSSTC

Compound	IC50
CC1(C)C(=O)N(c2ccc(SC(F)(F)F)cc2)C(=O)N1Cc1ccnc(Nc2cccc(O)n2)c1 [Compound 362, 1-((2-((6-hydroxypyridin-2-yl)amino)pyridin-4-yl)methyl)-5,5-dimethyl-3-(4-((trifluoromethyl)thio)phenyl) imidazolidine-2,4-dione]	500 to 2000 nM
COc1ccc(NC(=O)Nc2cc(CN3C(=O)N(c4ccc(SC(F)(F)F)cc4)C(=O)C3(C)C)ccn2)cc1 [Compound 363, 1-(4-((5,5-dimethyl-2,4-dioxo-3-(4-((trifluoromethyl)thio)phenyl)imidazolidin-1-yl)methyl)pyridin-2-yl)-3-(4-methoxyphenyl)urea]	≤ 500 nM
COc1cccc(NC(=O)Nc2cc(CN3C(=O)N(c4ccc(SC(F)(F)F)cc4)C(=O)C3(C)C)ccn2)c1 [Compound 364, 1-(4-((5,5-dimethyl-2,4-dioxo-3-(4-((trifluoromethyl)thio)phenyl)imidazolidin-1-yl)methyl)pyridin-2-yl)-3-(3-methoxyphenyl)urea]	≤ 500 nM
CC(=O)Nc1cc(CN2C(=O)N(c3ccc(SC(F)(F)F)cc3)C(=O)C2(C)C)ncn1 [Compound 365, N-(6-((5,5-dimethyl-2,4-dioxo-3-(4-((trifluoromethyl)thio)phenyl)imidazolidin-1-yl)methyl)pyrimidin-4-yl)acetamide]	≤ 500 nM
Cc1ccccc1NC(=O)Nc1cc(CN2C(=O)N(c3ccc(SC(F)(F)F)cc3)C(=O)C2(C)C)ccn1 [Compound 366, 1-(4-((5,5-dimethyl-2,4-dioxo-3-(4-((trifluoromethyl)thio)phenyl)imidazolidin-1-yl)methyl)pyridin-2-yl)-3-(o-tolyl)urea]	≤ 500 nM
CC1(C)C(=O)N(c2ccc(SC(F)(F)F)cc2)C(=O)N1Cc1cccc(Nc2c(Nc3ccccc3)c(=O)c2=O)n1 [Compound 367, 1-((6-((3,4-dioxo-2-(phenylamino)cyclobut-1-en-1-yl)amino)pyridin-2-yl)methyl)-5,5-dimethyl-3-(4-((trifluoromethyl)thio)phenyl) imidazolidine-2,4-dione]	500 to 2000 nM
Cc1ccc(NC(=O)Nc2cc(CN3C(=O)N(c4ccc(SC(F)(F)F)cc4)C(=O)C3(C)C)ccn2)cc1 [Compound 371, 1-(4-((5,5-dimethyl-2,4-dioxo-3-(4-((trifluoromethyl)thio)phenyl)imidazolidin-1-yl)methyl)pyridin-2-yl)-3-(p-tolyl)urea]	≤ 500 nM
CC1(C)C(=O)N(c2ccc(SC(F)(F)F)cc2)C(=O)N1Cc1ccnc(NC(=O)Nc2ccc(C#N)cc2)c1 [Compound 376, 1-(4-cyanophenyl)-3-(4-((5,5-dimethyl-2,4-dioxo-3-(4-((trifluoromethyl)thio)phenyl)imidazolidin-1-yl)methyl)pyridin-2-yl)urea]	≤ 500 nM
CC(C)Nc1cc(CN2C(=O)N(c3ccc(SC(F)(F)F)cc3)C(=O)C2(C)C)ncn1 [Compound 379, 1-((6-(isopropylamino)pyrimidin-4-yl)methyl)-5,5-dimethyl-3-(4-((trifluoromethyl)thio)phenyl) imidazolidine-2,4-dione]	500 to 2000 nM
CC1(C)C(=O)N(c2ccc(SC(F)(F)F)cc2)C(=O)N1Cc1ccnc(N)c1F [Compound 380, 1-((2-amino-3-fluoropyridin-4-yl)methyl)-5,5-dimethyl-3-(4-((trifluoromethyl)thio)phenyl) imidazolidine-2,4-dione]	≤ 500 nM
CC(C)Nc1nccc(CN2C(=O)N(c3ccc(SC(F)(F)F)cc3)C(=O)C2(C)C)c1F [Compound 382, 1-((3-fluoro-2-(isopropylamino)pyridin-4-yl)methyl)-5,5-dimethyl-3-(4-((trifluoromethyl)thio)phenyl) imidazolidine-2,4-dione]	2000 to 10000 nM
CC(C)Nc1cc(CN2C(=O)N(c3ccc(SC(F)(F)F)cc3)C(=O)C2(C)C)cc(F)n1 [Compound 383, 1-((2-fluoro-6-(isopropylamino)pyridin-4-yl)methyl)-5,5-dimethyl-3-(4-((trifluoromethyl)thio)phenyl) imidazolidine-2,4-dione]	2000 to 10000 nM

Next, values leading:

IC50	Compound
≤ 500 nM	CNC(=O)Nc1cc(CN2C(=O)N(c3ccc(SC(F)(F)F)cc3)C(=O)C2(C)C)ccn1 [Compound 361, 1-(4-((5,5-dimethyl-2,4-dioxo-3-(4-((trifluoromethyl)thio)phenyl)imidazolidin-1-yl)methyl)pyridin-2-yl)-3-methylurea]
≤ 500 nM	CC1(C)C(=O)N(c2ccc(SC(F)(F)F)cc2)C(=O)N1Cc1ccnc(NC(=O)Nc2ccc(F)cc2)c1 [Compound 368, 1-(4-((5,5-dimethyl-2,4-dioxo-3-(4-((trifluoromethyl)thio)phenyl)imidazolidin-1-yl)methyl)pyridin-2-yl)-3-(4-fluorophenyl)urea]
≤ 500 nM	CC1(C)C(=O)N(c2ccc(SC(F)(F)F)cc2)C(=O)N1Cc1ccnc(NC2CCCC2)c1 [Compound 369, 1-((2-(cyclopentylamino)pyridin-4-yl)methyl)-5,5-dimethyl-3-(4-((trifluoromethyl)thio)phenyl) imidazolidine-2,4-dione]
≤ 500 nM	CC(C)NC(=O)Nc1cc(CN2C(=O)N(c3ccc(SC(F)(F)F)cc3)C(=O)C2(C)C)ccn1 [Compound 370, 1-(4-((5,5-dimethyl-2,4-dioxo-3-(4-((trifluoromethyl)thio)phenyl)imidazolidin-1-yl)methyl)pyridin-2-yl)-3-isopropylurea]
≤ 500 nM	Cc1cccc(NC(=O)Nc2cc(CN3C(=O)N(c4ccc(SC(F)(F)F)cc4)C(=O)C3(C)C)ccn2)c1 [Compound 372, 1-(4-((5,5-dimethyl-2,4-dioxo-3-(4-((trifluoromethyl)thio)phenyl)imidazolidin-1-yl)methyl)pyridin-2-yl)-3-(m-tolyl)urea]
≤ 500 nM	CC1(C)C(=O)N(c2ccc(SC(F)(F)F)cc2)C(=O)N1Cc1ccnc(NC(=O)NC2CCC(F)(F)C2)c1 (stereo not shown) [Compound 374, 1-(3,3-difluorocyclopenty)-3-(4-((5,5-dimethyl-2,4-dioxo-3-(4-((trifluoromethyl)thio)phenyl)imidazolidin-1-yl)methyl)pyridin-2-yl)urea]
≤ 500 nM	CC1(C)C(=O)N(c2ccc(SC(F)(F)F)cc2)C(=O)N1Cc1ccnc(NC(=O)Nc2ccccc2F)c1 [Compound 375, 1-(4-((5,5-dimethyl-2,4-dioxo-3-(4-((trifluoromethyl)thio)phenyl)imidazolidin-1-yl)methyl)pyridin-2-yl)-3-(2-fluorophenyl)urea]
500 to 2000 nM	CC1(C)C(=O)N(c2ccc(SC(F)(F)F)cc2)C(=O)N1Cc1ccnc(NC(=O)Nc2ccc(Cl)cc2)c1 [Compound 377, 1-(4-chlorophenyl)-3-(4-((5,5-dimethyl-2,4-dioxo-3-(4-((trifluoromethyl)thio)phenyl)imidazolidin-1-yl)methyl)pyridin-2-yl)urea]
≤ 500 nM	CC1(C)C(=O)N(c2ccc(SC(F)(F)F)cc2)C(=O)N1Cc1ccnc(NC2CCC2)c1 [Compound 378, 1-((2-(cyclobutylamino)pyridin-4-yl)methyl)-5,5-dimethyl-3-(4-((trifluoromethyl)thio)phenyl) imidazolidine-2,4-dione]
≤ 500 nM	CCC(C)Nc1cc(CN2C(=O)N(c3ccc(SC(F)(F)F)cc3)C(=O)C2(C)C)ccn1 (stereo not shown) [Compound 381, 1-((2-(sec-butylamino)pyridin-4-yl)methyl)-5,5-dimethyl-3-(4-((trifluoromethyl)thio)phenyl)imidazolidine-2,4-dione]
